Data as given in US5472951A, “Stabilizer for phospholipid vesicles” (Chiba Flour Milling Co., Ltd., priority 1992, dated 1995).

Tests used:
Type in all cases: physicochemical
[1] = dispersion stability: turbidity increase at 500 nm, standing at 25 °C for 3 days
[2] = introduction ratio into the vesicle (phenol-sulfuric acid method); details: 2 mol % modifier; for introduction ratio: 4 °C, 24 hours
Experimental: (§1) The ratio of introduction of the stabilizer into the vesicles is determined by treating the dispersion of the vesicles by gel filtration or ultracentrifuge to remove the superfluous stabilizer which has not been introduced into the vesicles, and quantitatively determining saccharide in respective fractions by a phenol-sulfuric acid method. The stabilizer of the present invention, when employed in an amount of from 2 to 10 mol %, is introduced into the vesicles in a ratio of 90% or more.
The stability of the vesicle dispersion which had been passed through the 0.05 μm filter was evaluated by measuring the change of absorbance (turbidity) at 500 nm with time on standing at room temperature by means of a UV-visible light spectrophotometer.
2.4 mg of DOMG prepared in the same manner as in Example 11 was dissolved in 1 ml of chloroform. This solution was mixed with a solution of 100 mg of DPPC in 5 ml of chloroform, thereby DOMG being 2 mol % of DPPC. The solution mixture was evaporated by means of an evaporator to form a thin film on the inside wall of an eggplant-shape flask. Then 10 ml of pure water was added thereto so as to obtain a concentration of 1.0% by weight of the vesicles. The mixture was stirred with glass beads by means of a vortex mixer, and subsequently treated by an extruder to prepare a dispersion of DOMG-modified DPPC vesicles having controlled diameters of particles. A portion of the resulting dispersion was diluted to a fivefold volume with pure water to prepare a dispersion having vesicle concentration of 0.2% by weight.
The two dispersions of the DOMG-modified vesicles having concentrations of 1.0% by weight and 0.2% by weight were left standing at 4° C. for 24 hours, and were ultracentrifuged (300000 G, 60 minutes). The free DOMG in the supernatant was determined by a phenol-sulfuric acid method, and therefrom the ratio of introduction DOMG to the vesicles was calculated.
As the results, the introduction ratios were 94.3%, and 77.0% respectively at the vesicle concentrations of 1.0% by weight and 0.2% by weight. The results are shown in Table 4 together with the results of Comparative Examples 6 and 7 described later in which an oligosaccharide derivative was employed.

[3] = particle diameter of modified vesicles
[4] = turbidity increase, standing at 4 °C for 24 hours; details: for turbidity increase rate relative to unmodified DPPC vesicle dispersion (100%): Table 3 / Example 11 series
[5] = aggregation on addition of dextran: turbidity at 800 nm
Experimental: The precipitation of the vesicles was dispersed again to be 5 wt %, and thereto dextran (molecular weight of 40000) was added as a colloid osmotic pressure controller. The stability of the dispersion was observed by determination of turbidity at 800 nm.
The stability of the MPDSPE-modified vesicle was evaluated by adding, to the above dispersion, dextran (molecular weight: 4000) which is a colloid osmotic pressure controller, and measuring the turbidity from the absorbance at 800 nm. […] This proves the aggregation inhibition effect of the MPDSPE of the vesicle stabilizer of the present invention.
The resulting dispersion was treated with a microfluidizer at 2500 psi at 4° C. for 15 minutes to obtain a dispersion of SDSPE-modified vesicles having average particle diameter of 350±95 nm. This dispersion was centrifuged (100000 G, 30 minutes) to obtain a precipitate of vesicles. The precipitate was dispersed again into a solution to be 5% by weight. Occurrence of aggregation of the vesicles was tested by adding dextran (molecular weight 40000) to the dispersion and measuring the turbidity change at 800 nm. […] Therefrom the modification was confirmed to be effective to inhibition of aggregation caused by dextran.
5.0 g of a powdery lipid mixture containing the above STEC (DPPC:cholesterol:stearic acid:STEC=7:7:2:2 in molar ratio) was dispersed in 100 ml of saline, and the dispersion was stirred at 4° C. for 24 hours. The resulting dispersion was treated with a microfluidizer at 2500 psi at 4° C. for 15 minutes. This dispersion was centrifuged (10000 G, 30 minutes) to obtain precipitate of STEC-modified vesicles. The precipitate was dispersed again in to saline to be 5 wt %. The stability of the vesicles was evaluated by adding 2.5 wt % solution of dextran (molecular weight 40000) to the above vesicle layer and measuring the turbidity change at 800 nm. The STEC-modified vesicles caused the turbidity increase of 58% of that of the unmodified vesicles (DPPC:cholesterol:stearic acid=7:7:2 in molar ratio), thereby the inhibition effect of STEC, a vesicle stabilizer of the present invention being confirmed.

[6] = introduction ratio into mixed lipid vesicles; details: dimyristoyl phosphatidylcholine:cholesterol:myristic acid:LPMS 7:7:2:0.3
Experimental: as §1
The effect of the LPMS of the present invention on stabilization of vesicles was evaluated as follows. A powdery lipid mixture containing LPMS was prepared from dimyristoyl phosphatidylcholine, cholesterol, myristic acid, and LPMS (in molar ratio of 7:7:2:0.3) was prepared by freeze-drying. 100 ml of saline was added to 10 g of the above powdery lipid mixture, and the mixture was stirred at 4° C. for 24 hours to prepare a liquid dispersion. […] The introduction ratio of the LPMS was 85% according to saccharide determination of the supernatant liquid after centrifugation.
500 mg of a powdery lipid mixture containing MPDSG of the present invention was prepared from DPPC, cholesterol, distearyl phosphatidic acid, and MPDSG (in molar ratio of 10:9:0.9:0.5) was prepared by freeze-drying from benzene. […]

[7] = introduction ratio of ODM into DODPC vesicles
Experimental: Polymerizable 2,4-octadecadienyl-0-α(β)-maltose (hereinafter referred to as "ODM") was prepared from maltose and 2,4-octadecadienol according to the method shown in Example 11. A solution of 2.0 mg of this ODM in 1 ml of chloroform was mixed with a solution of 200 mg of di(2,4-octadecadienoyl)phosphatidylcholine (hereinafter referred to as "DODPC") as a polymerizable lipid in 5 ml of chloroform. The mixture was evaporated by a rotary evaporator to form a thin film on a wall of an eggplant-shape flask. 20 ml of pure water was added thereto, and agitated with glass beads by a vortex mixer. The resulting ODM-modified vesicle dispersion was treated by an extruder to prepare a dispersion of nearly uniform particle diameters. The vesicle dispersion was irradiated with γ-ray to copolymerize the ODM and the polymerizable lipid, DODPC. A portion of the irradiated dispersion was diluted fivefold with pure water and was left standing at 4° C. for 24 hours. The introduction ratio of ODM was measured by centrifuging the diluted and undiluted dispersions (300000 G, 60 minutes) respectively and determining the ODM in the supernatant by a phenol-sulfuric acid method.

[8] = turbidity increase of copolymerized vesicle dispersion, 4 °C for 24 hours; details: before fivefold dilution
[9] = mixed lipid vesicles, microfluidizer

## Maltopentaose monopalmitate [MPMP, reference compound]
[1]; Table 1 / Example 5 series, about 5 mol % modifier
  turbidity increase rate relative to unmodified DPPC vesicle dispersion (100%): 12.7%
[1]; Table 2 / Example 8 series, 5 mol % modifier
  turbidity increase rate relative to unmodified DPPC vesicle dispersion (100%): 11.2%
[2]
  introduction ratio in comparison with DOMG (in words): low in comparison with that of DOMG
[2]; vesicle concentration 0.2 wt %
  introduction ratio: 48.5%
[2]; vesicle concentration 1.0 wt %
  introduction ratio: 75.8%
[3]; DPPC vesicle, 5 mol % modifier (Example 8 series)
  average particle diameter: 34±12 nm
[3]; DPPC vesicle, about 5 mol % modifier, ultrasonicator (Example 5 series)
  average diameter: 34±12 nm
[4]; 5 mol % modifier, 24 hours
  turbidity increase rate relative to unmodified DPPC vesicle dispersion (100%): 13.5%

## CCCCCCCCCCCCCCCCCC(=O)OCC(COP(=O)(O)OCCNC(=O)[C@H](O)[C@@H](O)[C@H](O[C@@H]1O[C@H](CO)[C@@H](O)[C@H](O)[C@H]1O)[C@H](O)CO)OC(=O)CCCCCCCCCCCCCCCCC (stereo partly drawn) [SDSPE, cellobiose distearoylphosphatidyl ethanolamine]
[5]
  turbidity change on addition of dextran (in words): little rise of turbidity
[3]; [9]
  average diameter: 350±95 nm

## Dioctadecylmaltopentaosyl glycerol [DOMPG]
[2]
  introduction ratio in comparison with DOMG (in words): low in comparison with that of DOMG
[2]; vesicle concentration 0.2 wt %
  introduction ratio: 70.9%
[2]; vesicle concentration 1.0 wt %
  introduction ratio: 83.2%
[4]; 5 mol % modifier, 24 hours
  turbidity increase rate relative to unmodified DPPC vesicle dispersion (100%): 12.1%

## CC(C)CCC[C@@H](C)[C@H]1CC[C@H]2[C@@H]3CC=C4C[C@@H](OCCOCCOCCOCCOC5O[C@H](CO)[C@@H](O[C@@H]6O[C@H](CO)[C@@H](O)[C@H](O)[C@H]6O)[C@H](O)[C@H]5O)CC[C@]4(C)[C@H]3CC[C@]12C (stereo partly drawn) [STEC, cellobiosyl tetraethyleneglycosyl cholesterol]
[5]; 2.5 wt % dextran (MW 40000), DPPC:cholesterol:stearic acid:STEC 7:7:2:2
  turbidity increase on dextran addition relative to unmodified vesicles: 58%

## CCCCCCCCCCCCCCCCCCOC1O[C@H](CO)[C@@H](O)[C@H](O[C@@H]2O[C@H](CO)[C@@H](O)[C@H](O[C@@H]3O[C@H](CO)[C@@H](O)[C@H](O[C@@H]4O[C@H](CO)[C@@H](O)[C@H](O[C@@H]5O[C@H](CO)[C@@H](O)[C@H](O)[C@H]5O)[C@H]4O)[C@H]3O)[C@H]2O)[C@H]1O (stereo partly drawn) [LPMS, laminaripentaose monostearyl ether]
[6]
  introduction ratio: 85%
[5]
  turbidity change on addition of dextran (in words): did not give turbidity increase
[3]; [9]
  average diameter: 300±130 nm

## CCCCCCCCCCCCCCCCCCOCC(COC1O[C@H](CO)[C@@H](O[C@H]2O[C@H](CO)[C@@H](O)[C@H](O)[C@H]2O)[C@H](O)[C@H]1O)OCCCCCCCCCCCCCCCCCC (stereo partly drawn) [DOMG, 1,2-di-octadecyl-O-α(β)-maltosyl-glycerol]
[2]; vesicle concentration 0.2 wt %
  introduction ratio: 77.0%
[2]; vesicle concentration 1.0 wt %
  introduction ratio: 94.3%
[3]; DPPC vesicle, about 5 mol % modifier, extruder 0.05 μm (Example 11)
  particle diameter: 35±15 nm
[4]; 5-20 mol %
  increase of the turbidity depending on amount of modifier (order): 5 mol %>10 mol %>15 mol %>20
[4]; 5 mol % modifier, 24 hours
  vesicle stabilization effect (in words): not so effective
  turbidity increase rate relative to unmodified DPPC vesicle dispersion (100%): 45.5%
[4]; 10 mol % modifier, 24 hours
  turbidity increase rate relative to unmodified DPPC vesicle dispersion (100%): 28.9%
[4]; 15 mol % modifier, 24 hours
  turbidity increase rate relative to unmodified DPPC vesicle dispersion (100%): 16.0%
[4]; 20 mol % modifier, 24 hours
  turbidity increase rate relative to unmodified DPPC vesicle dispersion (100%): 11.2%

## CCCCCCCCCCCCCC=CC=CCOC1O[C@H](CO)[C@@H](O[C@H]2O[C@H](CO)[C@@H](O)[C@H](O)[C@H]2O)[C@H](O)[C@H]1O (stereo partly drawn) [ODM, 2,4-octadecadienyl-0-α(β)-maltose]
[7]; copolymerized by γ-ray, both diluted (fivefold) and undiluted dispersions
  introduction ratio of ODM: 94.2%
[7]; not copolymerized, after fivefold dilution
  introduction ratio of ODM: 66.9%
[7]; not copolymerized, before fivefold dilution
  introduction ratio of ODM: 93.8%
[8]
  turbidity increase relative to unmodified vesicles: 10.9%

## CCCCCCCCCCCCCCCCCC(=O)OCC(COP(=O)(O)OCCNC(=O)[C@H](O)[C@@H](O)[C@H](O[C@H]1O[C@H](CO)[C@@H](O[C@H]2O[C@H](CO)[C@@H](O[C@H]3O[C@H](CO)[C@@H](O[C@H]4O[C@H](CO)[C@@H](O)[C@H](O)[C@H]4O)[C@H](O)[C@H]3O)[C@H](O)[C@H]2O)[C@H](O)[C@H]1O)[C@H](O)CO)OC(=O)CCCCCCCCCCCCCCCCC (stereo partly drawn) [MPDSPE, Maltopentaose distearoyl phosphatidyl ethanolamide]
[5]
  turbidity change on addition of dextran (in words): did not show turbidity rise
[3]; [9]
  average diameter: 320±115 nm
